Twelve compounds from US20140073761A1, “CONJUGATES CONTAINING HYDROPHILIC SPACER LINKERS” (priority 2007, published 2014) can be followed below.

*1 amine or outer side, *2 acyl side, *3 side chain or, on linkers, in order; H or OH if unused. Where a SMILES comes first, the peptide text is derived from it. [ ]: non-standard residue; d: D form. The star is where a group is joined. X1 = CC[C@]1(O)C[C@H]2CN(CCc3c([nH]c4ccccc34)[C@@](C(=O)OC)(c3cc4c(cc3OC)N(C)[C@H]3[C@@](O)(C(=O)NNC(=O)OCCS*)[C@H](O)[C@]5(CC)C=CCN6CC[C@]43[C@@H]65)C2)C1; Nle(3R-OH,4S-OH,5R-OH,6-OH) = N[C@H](C(=O)O)[C@@H](O)[C@H](O)[C@H](O)CO; Pteroyl = Nc1nc2ncc(CNc3ccc(C(=O)*)cc3)nc2c(=O)[nH]1; γGlu = O=C(O)[C@H](CCC(=O)[*:2])N[*:1]

For data set [1], the system named is folate receptor-positive KB cells. The format is cell-based. As to conditions: excess folic acid. As for the experimental part:
Inhibition of Cellular DNA Synthesis. The compounds described herein were evaluated using an in vitro cytotoxicity assay that predicts the ability of the drug to inhibit the growth of folate receptor-positive KB cells. The compounds were comprised of folate linked to a respective chemotherapeutic drug, as prepared according to the protocols described herein. […] The cells were then rinsed once with fresh culture medium and incubated in fresh culture medium for 72 hours at 37° C. Cell viability was assessed using a ^3H-thymidine incorporation assay.
(§1) In Vitro Concentration-Dependent Cytotoxic Activity. Cells were heavily seeded in 24-well Falcon plates and allowed to form nearly confluent monolayers overnight. Thirty minutes prior to the addition of test article, spent medium was aspirated from all wells and replaced with fresh folate-free RPMI (FFRPMI). […] Treated cells were pulsed for 2 h at 37° C., rinsed 4 times with 0.5 mL of media, and then chased in 1 mL of fresh media up to 70 h. Spent media was aspirated from all wells and replaced with fresh media containing 5 μCi/mL ^3H-thymidine. Following a further 2 h 37° C. incubation, cells were washed 3 times with 0.5 mL of PBS and then treated with 0.5 mL of ice-cold 5% trichloroacetic acid per well. After 15 min, the trichloroacetic acid was aspirated and the cell material solubilized by the addition of 0.5 mL of 0.25 N sodium hydroxide for 15 min. Four hundred and fifty μL of each solubilized sample were transferred to scintillation vials containing 3 mL of Ecolume scintillation cocktail and then counted in a liquid scintillation counter. Final tabulated results were expressed as the percentage of ^3H-thymidine incorporation relative to untreated controls.
(§2) As shown in the figures herein, dose-dependent cytotoxicity was measurable, and in most cases, the IC50 values (concentration of drug conjugate required to reduce ^3H-thymidine incorporation into newly synthesized DNA by 50%) were in the low nanomolar range. […] The following table illustrated data for selected compounds against KB cells and against RAW264.7 cells

The subject of data set [2] is RAW264.7 cells. The format is cell-based. As to conditions: for RAW264.7 Cells Competable with xs folate: excess folic acid. As to the method: as §1, §2
For data set [3] the following is noted: rat, in vivo.
Text: Comparison of Bile Clearance (% ID) of unconjugated drug, drug conjugate lacking a hydrophilic spacer linker, and conjugates described herein.
The conditions of data set [4]: FIG. 6B, 7B, 8B; M109 tumors, Balb/c mice; 2 μmol/kg TIW two weeks. As for the experimental part:
Toxicity as Measured by Weight Loss. The percentage weight change was determined in mice (5 mice/group) on selected days post-tumor inoculation (PTI), compared to controls, and graphed.

On to `CC(=O)O[C@H]1C(=O)[C@@]2(C)[C@H]([C@H](OC(=O)c3ccccc3)[C@]3(O)C[C@H](OC(=O)[C@H](OC(=O)COc4ccc(C(=O)NNC(=O)OCCSSC[C@H](NC(=O)[C@H](CCC(=O)NC[C@H](O)[C@@H](O)[C@H](O)[C@H](O)CO)NC(=O)[C@H](CCC(=O)O)NC(=O)[C@H](CCC(=O)NC[C@H](O)[C@@H](O)[C@H](O)[C@H](O)CO)NC(=O)[C@H](CCC(=O)O)NC(=O)[C@H](CCC(=O)NC[C@H](O)[C@@H](O)[C@H](O)[C@H](O)CO)NC(=O)CC[C@H](NC(=O)c5ccc(NCc6cnc7nc(N)[nH]c(=O)c7n6)cc5)C(=O)O)C(=O)O)cc4)[C@@H](NC(=O)c4ccccc4)c4ccccc4)C(C)=C1C3(C)C)[C@]1(OC(C)=O)CO[C@@H]1C[C@@H]2O` [EC0561], for which the “KB Cells Competable with xs folate” value in data set [1] is on record as “Yes”. As to `CO[C@H]1C[C@@H]2CC[C@@H](C)[C@@](O)(O2)C(=O)C(=O)N2CCCC[C@H]2C(=O)O[C@H]([C@H](C)C[C@@H]2CC[C@@H](O)[C@H](OC)C2)CC(=O)[C@H](C)/C=C(\C)[C@@H](OC(=O)OCCSSC[C@H](NC(=O)[C@H](CCC(=O)NC[C@H](O)[C@@H](O)[C@H](O)[C@H](O)CO)NC(=O)[C@H](CCC(=O)O)NC(=O)[C@H](CCC(=O)NC[C@H](O)[C@@H](O)[C@H](O)[C@H](O)CO)NC(=O)[C@H](CCC(=O)O)NC(=O)[C@H](CCC(=O)NC[C@H](O)[C@@H](O)[C@H](O)[C@H](O)CO)NC(=O)CC[C@H](NC(=O)c2ccc(NCc3cnc4nc(N)[nH]c(=O)c4n3)cc2)C(=O)O)C(=O)O)[C@@H](OC)C(=O)[C@H](C)C[C@H](C)/C=C/C=C/C=C/1C` [EC0552], in data set [2], the “RAW264.7 Cells Competable with xs folate” value is on record as “Yes”. Same read-out and setting: next, `CO[C@H]1C[C@@H]2CC[C@@H](C)[C@@](O)(O2)C(=O)C(=O)N2CCCC[C@H]2C(=O)O[C@H]([C@H](C)C[C@@H]2CC[C@@H](O)[C@H](OC)C2)CC(=O)[C@H](C)/C=C(\C)[C@@H](OC(=O)OCCSSCCC(=O)NC[C@@H]2NC(=O)[C@@H](NC(=O)[C@H](CCC(=O)O)NC(=O)[C@H](CCC(=O)NC[C@H](O)[C@@H](O)[C@H](O)[C@H](O)CO)NC(=O)[C@H](CCC(=O)O)NC(=O)[C@H](CCC(=O)NC[C@H](O)[C@@H](O)[C@H](O)[C@H](O)CO)NC(=O)CC[C@H](NC(=O)c3ccc(NCc4cnc5nc(N)[nH]c(=O)c5n4)cc3)C(=O)O)CCC(=O)NC[C@H](O)[C@@H](O)[C@H](O)[C@H]3COB(O3)[C@H](CC(C)C)NC(=O)[C@H](Cc3ccccc3)NC(=O)c3cnc(cn3)CSSC[C@@H](C(=O)O)NC2=O)[C@@H](OC)C(=O)[C@H](C)C[C@H](C)/C=C/C=C/C=C/1C` [EC0563]: “Yes”. Consider `CC[C@]1(O)C[C@@H]2CN(CCc3c([nH]c4ccccc34)[C@@](C(=O)OC)(c3cc4c(cc3OC)N(C)[C@H]3[C@@](O)(C(=O)NN)[C@H](O)[C@]5(CC)C=CCN6CC[C@]43[C@@H]65)C2)C1` [DAVLBH, deacetylvinblastine monohydrazide, reference compound], for which, in data set [3], the “Bile clearance (% ID)” value was determined as 58.0 % ID. With `COc1ccc(C[C@H]2NC(=O)/C=C/C[C@@H]([C@H](C)[C@@H](OC(=O)OCCSSC[C@H](NC(=O)[C@@H](NC(=O)[C@H](CC(=O)O)NC(=O)[C@@H](NC(=O)[C@H](CC(=O)O)NC(=O)[C@@H](NC(=O)CC[C@H](NC(=O)c3ccc(NCc4cnc5nc(N)[nH]c(=O)c5n4)cc3)C(=O)O)[C@@H](O)[C@H](O)[C@H](O)CO)[C@@H](O)[C@H](O)[C@H](O)CO)[C@@H](O)[C@H](O)[C@H](O)CO)C(=O)O)[C@@H](Cl)c3ccccc3)OC(=O)[C@H](CC(C)C)OC(=O)C(C)(C)CNC2=O)cc1Cl` [EC0262], the “KB Cells Competable with xs folate” value in data set [1] was “Yes”. With `Nc1nc(N)c2nc(CNc3ccc(C(=O)N[C@@H](CCC(=O)OCCSSC[C@H](NC(=O)[C@H](CCC(=O)NC[C@H](O)[C@@H](O)[C@H](O)[C@H](O)CO)NC(=O)[C@H](CCC(=O)O)NC(=O)[C@H](CCC(=O)NC[C@H](O)[C@@H](O)[C@H](O)[C@H](O)CO)NC(=O)[C@H](CCC(=O)O)NC(=O)[C@H](CCC(=O)NC[C@H](O)[C@@H](O)[C@H](O)[C@H](O)CO)NC(=O)CC[C@H](NC(=O)c4ccc(NCc5cnc6nc(N)[nH]c(=O)c6n5)cc4)C(=O)O)C(=O)O)C(=O)O)cc3)cnc2n1` [EC0551], in data set [2], the 50% inhibitory concentration (IC50) (in general, the midpoint of a concentration-inhibition curve) is 1 nM and the “RAW264.7 Cells Competable with xs folate” value is on record as “Yes”. On to `CC[C@]1(O)C[C@H]2CN(CCc3c([nH]c4ccccc34)[C@@](C(=O)OC)(c3cc4c(cc3OC)N(C)[C@H]3[C@@](O)(C(=O)NNC(=O)OCCSSC[C@H](NC(=O)[C@@H](NC(=O)[C@@H](NC(=O)[C@H](CC(=O)O)NC(=O)[C@@H](NC(=O)CC[C@H](NC(=O)c5ccc(NCc6cnc7nc(N)[nH]c(=O)c7n6)cc5)C(=O)O)[C@@H](O)[C@H](O)[C@H](O)CO)[C@@H](O)[C@H](O)[C@H](O)CO)[C@@H](O)[C@H](O)[C@H](O)CO)C(=O)O)[C@H](O)[C@]5(CC)C=CCN6CC[C@]43[C@@H]65)C2)C1` [EC0258, Tris-Saccharo-Asp-Folate Vinblastine Conjugate], for which the “KB Cells Competable with xs folate” value in data set [1] is given as “Yes”. Moreover, the “Bile clearance (% ID)” value in data set [3] is given as 3.2 % ID. For the compound `CC[C@]1(O)C[C@H]2CN(CCc3c([nH]c4ccccc34)[C@@](C(=O)OC)(c3cc4c(cc3OC)N(C)[C@H]3[C@@](O)(C(=O)NNC(=O)OCCSSC[C@H](NC(=O)CCOCCOCCOCCOCCOCCOCCOCCOCCOCCOCCOCCOCCNC(=O)CC[C@H](NC(=O)c5ccc(NCc6cnc7nc(N)nc(O)c7n6)cc5)C(=O)O)C(=O)O)[C@H](O)[C@]5(CC)C=CCN6CC[C@]43[C@@H]65)C2)C1` [EC0409], in data set [1], the “KB Cells Competable with xs folate” value is reported as “Yes”. Further, the “Bile clearance (% ID)” value in data set [3] was 7.9 % ID.

With `CO[C@H]1C[C@@H]2CC[C@@H](C)[C@@](O)(O2)C(=O)C(=O)N2CCCC[C@H]2C(=O)O[C@H]([C@H](C)C[C@@H]2CC[C@@H](OCCOC(=O)OCCSSCCC(=O)NC[C@@H]3NC(=O)[C@@H](NC(=O)[C@H](CCC(=O)O)NC(=O)[C@H](CCC(=O)NC[C@H](O)[C@@H](O)[C@H](O)[C@H](O)CO)NC(=O)[C@H](CCC(=O)O)NC(=O)[C@H](CCC(=O)NC[C@H](O)[C@@H](O)[C@H](O)[C@H](O)CO)NC(=O)CC[C@H](NC(=O)c4ccc(NCc5cnc6nc(N)[nH]c(=O)c6n5)cc4)C(=O)O)CCC(=O)NC[C@H](O)[C@@H](O)[C@H](O)[C@H]4COB(O4)[C@H](CC(C)C)NC(=O)[C@H](Cc4ccccc4)NC(=O)c4cnc(cn4)CSSC[C@@H](C(=O)O)NC3=O)[C@H](OC)C2)CC(=O)[C@H](C)/C=C(\C)[C@@H](O)[C@@H](OC)C(=O)[C@H](C)C[C@H](C)/C=C/C=C/C=C/1C` [EC0582], the “RAW264.7 Cells Competable with xs folate” value in data set [2] is “Yes”. With `CNC(=O)[C@H](Cc1cn(CCO[C@@H]2OC(C(=O)O)C(O)[C@H](O)C2O)nn1)NC(=O)CC[C@H](NC(=O)c1ccc(NCc2cnc3nc(N)nc(O)c3n2)cc1)C(=O)O` (stereo partly shown) [EC0423], the “Bile clearance (% ID)” value in data set [3] worked out at 3.9 % ID. For the compound `CCC(C)[C@H](NC(=O)[C@H]1CCCCN1C)C(=O)N(COC(=O)CC(C)C)[C@H](C[C@@H](OC(C)=O)c1nc(C(=O)N[C@@H](Cc2ccc(O)cc2)C[C@H](C)C(=O)NNC(=O)OCSSC[C@H](NC(=O)[C@H](CCC(=O)NC[C@H](O)[C@@H](O)[C@H](O)[C@H](O)CO)NC(=O)[C@H](CCC(=O)O)NC(=O)[C@H](CCC(=O)NC[C@H](O)[C@@H](O)[C@H](O)[C@H](O)CO)NC(=O)[C@H](CCC(=O)O)NC(=O)[C@H](CCC(=O)NC[C@H](O)[C@@H](O)[C@H](O)[C@H](O)CO)NC(=O)CC[C@H](NC(=O)c2ccc(NCc3cnc4nc(N)[nH]c(=O)c4n3)cc2)C(=O)O)C(=O)O)cs1)C(C)C` (stereo partly shown) [EC0543], the “KB Cells Competable with xs folate” value in data set [1] is reported as “Yes”. As for `CC[C@]1(O)C[C@H]2CN(CCc3c([nH]c4ccccc34)[C@@](C(=O)OC)(c3cc4c(cc3OC)N(C)[C@H]3[C@@](O)(C(=O)NNC(=O)OCCSSC[C@H](NC(=O)[C@@H](NC(=O)[C@H](CC(=O)O)NC(=O)[C@@H](NC(=O)[C@H](CC(=O)O)NC(=O)[C@@H](NC(=O)[C@H](CC(=O)O)NC(=O)[C@@H](NC(=O)CC[C@H](NC(=O)c5ccc(NCc6cnc7nc(N)[nH]c(=O)c7n6)cc5)C(=O)O)[C@@H](O)[C@H](O)[C@H](O)CO)[C@@H](O)[C@H](O)[C@H](O)CO)[C@@H](O)[C@H](O)[C@H](O)CO)[C@@H](O)[C@H](O)[C@H](O)CO)C(=O)O)[C@H](O)[C@]5(CC)C=CCN6CC[C@]43[C@@H]65)C2)C1` [EC0434, Tetra-Saccharo-Tris-Asp-Folate Vinblastine Conjugate] ({Pteroyl-γGlu}-[Nle(3R-OH,4S-OH,5R-OH,6-OH)]D[Nle(3R-OH,4S-OH,5R-OH,6-OH)]D[Nle(3R-OH,4S-OH,5R-OH,6-OH)]D[Nle(3R-OH,4S-OH,5R-OH,6-OH)]C(X1)-OH), in data set [4], the “gross toxicity (percentage body weight change)” value is “no gross toxicity was observed”. Further, the “percent of total dose in the bile (total DAVLBH biliary excretion)” value in data set [3] (iv) is reported as 2.8%.
